Results from ChEMBL document CHEMBL3132748, “Novel inhibitors of breast cancer relevant kinases Brk and HER2” (Medchemcomm, 2014).
The source made the active and inactive calls. The rule behind the calls is not given here.

Legend:
[1] = molecular target: Receptor tyrosine-protein kinase erbB-2 (Homo sapiens, UniProt P04626); test: Inhibition of human recombinant GST-fused HER2 expressed in baculovirus Sf9 insect cells using poly(Glu,Tyr) as substrate after 60 mins by scintillation counting
[2] = molecular target: T1, Protein-tyrosine kinase 6 (Homo sapiens, UniProt Q13882); test: Inhibition of human recombinant GST-fused Brk expressed in baculovirus Sf9 insect cells using poly(Glu,Tyr) as substrate after 60 mins by scintillation counting
Target sequence in this assay (Q13882 whole entry, the tested form may be a part): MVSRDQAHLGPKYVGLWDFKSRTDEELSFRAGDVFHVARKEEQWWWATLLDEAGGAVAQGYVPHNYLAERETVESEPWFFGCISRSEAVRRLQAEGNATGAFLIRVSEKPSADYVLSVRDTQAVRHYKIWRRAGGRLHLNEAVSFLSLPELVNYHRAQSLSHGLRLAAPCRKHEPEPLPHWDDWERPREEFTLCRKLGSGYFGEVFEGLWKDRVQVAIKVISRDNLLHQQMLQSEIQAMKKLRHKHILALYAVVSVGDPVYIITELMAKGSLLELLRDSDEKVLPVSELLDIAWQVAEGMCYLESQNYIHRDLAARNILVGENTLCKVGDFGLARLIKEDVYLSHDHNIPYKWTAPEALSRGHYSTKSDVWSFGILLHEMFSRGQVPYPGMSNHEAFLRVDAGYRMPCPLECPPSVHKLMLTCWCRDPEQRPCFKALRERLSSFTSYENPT

MDA-MB-468 = test: Antiproliferative activity against human MDA-MB-468 cells by SRB assay; assay type: functional
MCF7 = test: Antiproliferative activity against human MCF7 cells by SRB assay; assay type: functional
[3] = molecular target: T1, Protein-tyrosine kinase 6; test: Inhibition of BRK in human T47D cells assessed as phosphorylation of STAT3 at >100 nM by Western blot analysis; assay type: cell-based
Target sequence in this assay (Q13882 whole entry, looked up, the tested form may be a part): as the sequence (Q13882 whole entry, the tested form may be a part) above

Aurora kinase C = molecular target: T2, Aurora kinase C (Homo sapiens, UniProt Q9UQB9); test: Inhibition of aurora-C (unknown origin) using tetra(LRRWSLG) as substrate after 60 mins by scintillation counting
T2 sequence (Q9UQB9 whole entry): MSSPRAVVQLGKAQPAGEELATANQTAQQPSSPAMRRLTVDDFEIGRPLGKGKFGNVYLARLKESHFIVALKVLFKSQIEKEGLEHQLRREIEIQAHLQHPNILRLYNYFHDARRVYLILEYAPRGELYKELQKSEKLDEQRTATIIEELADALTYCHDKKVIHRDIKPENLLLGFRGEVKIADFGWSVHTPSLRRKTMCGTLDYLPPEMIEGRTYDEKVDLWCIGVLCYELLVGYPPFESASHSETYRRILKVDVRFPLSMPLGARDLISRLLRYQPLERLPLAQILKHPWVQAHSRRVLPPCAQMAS

Aurora kinase A = molecular target: T3, Aurora kinase A (Homo sapiens, UniProt O14965); test: Inhibition of aurora-A (unknown origin) using tetra(LRRWSLG) as substrate after 60 mins by scintillation counting
T3 sequence (O14965 whole entry): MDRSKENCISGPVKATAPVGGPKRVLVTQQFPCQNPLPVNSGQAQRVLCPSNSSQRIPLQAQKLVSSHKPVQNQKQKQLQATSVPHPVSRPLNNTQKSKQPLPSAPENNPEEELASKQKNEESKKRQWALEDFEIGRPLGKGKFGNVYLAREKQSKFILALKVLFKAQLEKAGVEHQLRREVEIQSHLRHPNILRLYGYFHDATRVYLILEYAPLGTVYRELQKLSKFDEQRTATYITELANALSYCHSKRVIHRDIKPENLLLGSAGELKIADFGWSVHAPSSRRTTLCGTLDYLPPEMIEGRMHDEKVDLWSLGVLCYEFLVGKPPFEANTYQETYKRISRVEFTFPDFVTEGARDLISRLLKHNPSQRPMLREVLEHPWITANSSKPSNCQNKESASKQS

[4] = molecular target: Epidermal growth factor receptor (Homo sapiens, UniProt P00533); test: Inhibition of EGFR (unknown origin) using poly(Glu,Tyr) as substrate after 60 mins by scintillation counting
[5] = molecular target: RAC-beta serine/threonine-protein kinase (Homo sapiens) (UniProt P31751); test: Inhibition of AKT2 (unknown origin)using GSK3 (14 to 27) as substrate after 60 mins by scintillation counting
Sequence of RAC-beta serine/threonine-protein kinase (Homo sapiens) (P31751 whole entry): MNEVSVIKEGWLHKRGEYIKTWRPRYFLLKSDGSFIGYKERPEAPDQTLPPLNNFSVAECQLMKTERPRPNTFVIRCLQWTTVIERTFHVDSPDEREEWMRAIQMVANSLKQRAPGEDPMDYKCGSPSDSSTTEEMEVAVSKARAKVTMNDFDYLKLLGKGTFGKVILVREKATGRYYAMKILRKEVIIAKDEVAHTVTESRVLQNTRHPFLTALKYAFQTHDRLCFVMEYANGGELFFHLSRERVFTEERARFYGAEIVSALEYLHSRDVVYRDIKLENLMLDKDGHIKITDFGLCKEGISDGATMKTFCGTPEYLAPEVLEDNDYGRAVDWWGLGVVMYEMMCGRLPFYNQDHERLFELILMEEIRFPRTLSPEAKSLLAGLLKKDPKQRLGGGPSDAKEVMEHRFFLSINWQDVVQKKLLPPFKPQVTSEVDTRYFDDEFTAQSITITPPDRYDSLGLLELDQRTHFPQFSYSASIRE

[6] = molecular target: RAC-alpha serine/threonine-protein kinase (Homo sapiens) (UniProt P31749); test: Inhibition of AKT1 (unknown origin) using GSK3 (14 to 27) as substrate after 60 mins by scintillation counting
Sequence of RAC-alpha serine/threonine-protein kinase (Homo sapiens) (P31749 whole entry): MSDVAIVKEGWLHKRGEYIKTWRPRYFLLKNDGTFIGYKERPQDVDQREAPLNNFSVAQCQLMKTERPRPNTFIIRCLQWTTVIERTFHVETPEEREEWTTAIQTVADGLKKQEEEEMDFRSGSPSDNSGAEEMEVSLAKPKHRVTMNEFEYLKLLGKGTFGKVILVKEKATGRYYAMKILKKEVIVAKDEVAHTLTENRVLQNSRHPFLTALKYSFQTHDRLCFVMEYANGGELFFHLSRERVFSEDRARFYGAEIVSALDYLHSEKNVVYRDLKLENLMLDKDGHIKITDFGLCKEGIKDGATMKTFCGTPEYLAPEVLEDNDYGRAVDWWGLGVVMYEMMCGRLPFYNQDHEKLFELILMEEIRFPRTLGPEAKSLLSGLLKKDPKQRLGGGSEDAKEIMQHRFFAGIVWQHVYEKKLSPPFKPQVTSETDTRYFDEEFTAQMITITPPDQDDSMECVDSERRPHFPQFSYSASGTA

[7] = molecular target: T4, Serine/threonine-protein kinase VRK1 (Homo sapiens) (UniProt Q99986); test: Inhibition of VRK1 (unknown origin) using RBER-CHKtide as substrate after 60 mins by scintillation counting
T4 sequence (whole entry): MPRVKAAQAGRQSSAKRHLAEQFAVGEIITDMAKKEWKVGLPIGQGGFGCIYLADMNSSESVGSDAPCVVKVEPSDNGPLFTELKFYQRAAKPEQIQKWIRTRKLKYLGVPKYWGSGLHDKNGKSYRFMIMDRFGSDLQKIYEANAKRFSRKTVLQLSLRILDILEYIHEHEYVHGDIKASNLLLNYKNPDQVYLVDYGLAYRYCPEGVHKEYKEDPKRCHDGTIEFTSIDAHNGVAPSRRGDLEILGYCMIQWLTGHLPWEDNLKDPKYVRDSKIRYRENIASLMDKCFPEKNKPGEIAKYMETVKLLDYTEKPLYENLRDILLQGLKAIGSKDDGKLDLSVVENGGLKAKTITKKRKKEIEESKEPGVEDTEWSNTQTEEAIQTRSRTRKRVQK

[8] = molecular target: Serine/threonine-protein kinase PAK 1 (Homo sapiens) (UniProt Q13153); test: Inhibition of PAK1 (unknown origin) using tetra(LRRWSLG) as substrate after 60 mins by scintillation counting
Sequence of Serine/threonine-protein kinase PAK 1 (Homo sapiens) (Q13153 whole entry): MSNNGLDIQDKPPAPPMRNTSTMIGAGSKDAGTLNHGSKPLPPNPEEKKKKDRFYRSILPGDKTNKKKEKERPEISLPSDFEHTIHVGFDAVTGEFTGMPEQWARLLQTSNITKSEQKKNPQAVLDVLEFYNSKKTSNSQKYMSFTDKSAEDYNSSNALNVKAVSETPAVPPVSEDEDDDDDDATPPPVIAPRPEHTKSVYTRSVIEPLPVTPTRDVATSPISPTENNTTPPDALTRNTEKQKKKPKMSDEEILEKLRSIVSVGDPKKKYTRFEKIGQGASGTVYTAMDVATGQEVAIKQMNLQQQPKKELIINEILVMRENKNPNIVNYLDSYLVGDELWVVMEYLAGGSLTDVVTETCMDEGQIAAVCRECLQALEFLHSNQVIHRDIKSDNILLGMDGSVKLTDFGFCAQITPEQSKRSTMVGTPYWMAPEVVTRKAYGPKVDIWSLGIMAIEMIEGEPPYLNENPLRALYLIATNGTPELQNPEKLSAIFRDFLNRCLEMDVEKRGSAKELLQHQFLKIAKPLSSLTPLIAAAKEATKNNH

[9] = molecular target: Mitogen-activated protein kinase 10 (Homo sapiens) (UniProt P53779); test: Inhibition of JNK3 (unknown origin) using ATF2 as substrate after 60 mins by scintillation counting
Sequence of Mitogen-activated protein kinase 10 (Homo sapiens) (P53779 whole entry): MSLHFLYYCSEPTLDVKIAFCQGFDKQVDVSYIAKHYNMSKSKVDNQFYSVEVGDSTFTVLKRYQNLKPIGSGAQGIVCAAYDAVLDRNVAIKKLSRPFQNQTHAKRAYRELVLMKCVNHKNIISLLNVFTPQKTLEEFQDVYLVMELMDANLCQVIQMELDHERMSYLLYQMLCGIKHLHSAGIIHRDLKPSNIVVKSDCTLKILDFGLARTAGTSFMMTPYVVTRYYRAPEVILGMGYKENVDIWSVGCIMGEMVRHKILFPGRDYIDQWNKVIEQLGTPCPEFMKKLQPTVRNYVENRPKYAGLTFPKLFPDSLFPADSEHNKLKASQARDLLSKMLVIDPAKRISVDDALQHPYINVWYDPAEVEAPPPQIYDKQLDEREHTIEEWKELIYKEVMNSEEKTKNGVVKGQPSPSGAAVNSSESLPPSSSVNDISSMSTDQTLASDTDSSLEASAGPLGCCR

[10] = molecular target: Mitogen-activated protein kinase 8 (Homo sapiens) (UniProt P45983); test: Inhibition of JNK1 (unknown origin) using ATF2 as substrate after 60 mins by scintillation counting
Sequence of Mitogen-activated protein kinase 8 (Homo sapiens) (P45983 whole entry): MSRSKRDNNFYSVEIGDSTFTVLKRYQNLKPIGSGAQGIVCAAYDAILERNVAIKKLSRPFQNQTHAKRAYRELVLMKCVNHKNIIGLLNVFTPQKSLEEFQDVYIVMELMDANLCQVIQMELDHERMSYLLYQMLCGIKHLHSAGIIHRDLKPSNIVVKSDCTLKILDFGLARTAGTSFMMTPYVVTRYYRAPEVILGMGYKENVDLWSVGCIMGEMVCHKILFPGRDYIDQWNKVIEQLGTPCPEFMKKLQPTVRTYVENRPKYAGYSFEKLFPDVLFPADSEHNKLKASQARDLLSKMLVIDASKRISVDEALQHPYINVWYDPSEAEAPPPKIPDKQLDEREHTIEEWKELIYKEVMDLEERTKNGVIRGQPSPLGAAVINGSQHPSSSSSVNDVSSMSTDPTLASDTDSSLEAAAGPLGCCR

[11] = molecular target: Mitogen-activated protein kinase 1 (Homo sapiens) (UniProt P28482); test: Inhibition of ERK2 (unknown origin) using RBER-CHKtide as substrate after 60 mins by scintillation counting
Sequence of Mitogen-activated protein kinase 1 (Homo sapiens) (P28482 whole entry): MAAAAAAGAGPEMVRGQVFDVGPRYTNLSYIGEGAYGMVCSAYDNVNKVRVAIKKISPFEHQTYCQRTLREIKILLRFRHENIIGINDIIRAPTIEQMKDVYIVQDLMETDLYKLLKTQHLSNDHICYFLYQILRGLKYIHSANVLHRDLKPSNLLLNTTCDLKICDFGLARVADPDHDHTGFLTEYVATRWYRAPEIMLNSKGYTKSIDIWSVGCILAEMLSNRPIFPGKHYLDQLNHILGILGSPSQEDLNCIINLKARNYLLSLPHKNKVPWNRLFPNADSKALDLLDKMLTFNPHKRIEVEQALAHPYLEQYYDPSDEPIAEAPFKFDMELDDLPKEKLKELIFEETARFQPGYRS

Sequence of Receptor tyrosine-protein kinase erbB-2 (P04626 whole entry, the tested form may be a part): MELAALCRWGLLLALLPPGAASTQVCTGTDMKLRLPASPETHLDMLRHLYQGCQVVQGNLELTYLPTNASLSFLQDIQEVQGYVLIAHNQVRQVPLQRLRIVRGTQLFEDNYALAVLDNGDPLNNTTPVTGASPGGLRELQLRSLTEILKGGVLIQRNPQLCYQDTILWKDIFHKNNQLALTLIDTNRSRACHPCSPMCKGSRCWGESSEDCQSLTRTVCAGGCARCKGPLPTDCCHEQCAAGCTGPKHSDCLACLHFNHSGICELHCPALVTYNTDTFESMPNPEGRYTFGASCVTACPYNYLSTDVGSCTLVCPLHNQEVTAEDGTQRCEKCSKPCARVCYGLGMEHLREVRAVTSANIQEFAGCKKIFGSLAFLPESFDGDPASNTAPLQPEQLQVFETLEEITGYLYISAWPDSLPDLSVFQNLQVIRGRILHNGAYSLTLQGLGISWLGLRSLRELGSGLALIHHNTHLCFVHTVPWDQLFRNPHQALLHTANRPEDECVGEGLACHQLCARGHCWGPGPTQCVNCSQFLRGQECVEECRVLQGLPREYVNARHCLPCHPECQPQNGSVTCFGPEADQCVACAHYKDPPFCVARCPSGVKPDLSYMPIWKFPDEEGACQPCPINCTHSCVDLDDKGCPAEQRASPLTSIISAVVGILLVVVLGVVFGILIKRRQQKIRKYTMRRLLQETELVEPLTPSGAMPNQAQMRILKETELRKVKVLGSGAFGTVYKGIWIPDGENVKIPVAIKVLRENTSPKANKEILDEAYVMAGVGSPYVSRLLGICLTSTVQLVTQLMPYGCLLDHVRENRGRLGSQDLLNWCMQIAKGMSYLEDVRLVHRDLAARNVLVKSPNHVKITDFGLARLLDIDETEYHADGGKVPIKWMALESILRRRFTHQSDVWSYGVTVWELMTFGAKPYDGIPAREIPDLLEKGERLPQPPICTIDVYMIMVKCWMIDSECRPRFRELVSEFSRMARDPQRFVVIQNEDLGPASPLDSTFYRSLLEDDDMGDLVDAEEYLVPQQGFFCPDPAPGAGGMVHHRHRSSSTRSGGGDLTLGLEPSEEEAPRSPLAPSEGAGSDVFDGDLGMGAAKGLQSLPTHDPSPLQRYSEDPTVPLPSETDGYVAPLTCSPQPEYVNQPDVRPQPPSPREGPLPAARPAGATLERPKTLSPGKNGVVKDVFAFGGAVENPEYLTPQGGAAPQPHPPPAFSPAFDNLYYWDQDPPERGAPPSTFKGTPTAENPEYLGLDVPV

Structure (SMILES)	IC50 [1] [µM]	IC50 [2] [µM]	further results
CCOc1cccc(Nc2ccnc3[nH]c4ccc(S(=O)(=O)N5CCOCC5)cc4c23)c1	54.8	0.41	
Clc1cccc(Nc2ccnc3[nH]c4ccccc4c23)c1	0.066		
Oc1cccc(Nc2ccnc3[nH]c4ccc(Br)cc4c23)c1			GI50 (MDA-MB-468): 1.35 µM; GI50 (MCF7): 0.44 µM
COc1cccc(Nc2ccnc3[nH]c4ccc(S(=O)(=O)N5CCOCC5)cc4c23)c1	1.24	0.0057	
Oc1cccc(Nc2ccnc3[nH]c4ccccc4c23)c1	1.3		GI50 (MDA-MB-468): 1 µM; GI50 (MCF7): 0.89 µM; inhibition [3]: Active; IC50 (Aurora kinase C): 0.259 µM; IC50 (Aurora kinase A): 0.25 µM; IC50 [4]: 0.27 µM; inhibition [5]: inactive; inhibition [6]: inactive; inhibition [7]: inactive; inhibition [8]: inactive; inhibition [9]: inactive; inhibition [10]: inactive; inhibition [11]: inactive
CCOc1cccc(Nc2ccnc3[nH]c4ccc(S(=O)(=O)N5CCNCC5)cc4c23)c1	0.576	0.026	
O=S(=O)(c1ccc2[nH]c3nccc(Nc4cccc(OCc5ccccc5)c4)c3c2c1)N1CCOCC1	28.3	0.055	
Clc1ccc(Nc2ccnc3[nH]c4ccccc4c23)cc1	0.31	> 1000	
O=S(=O)(c1ccc2[nH]c3nccc(Nc4cccc(O)c4)c3c2c1)N1CCN(CCO)CC1	0.376	> 1000	

Continued, in another order:

IC50 [1] [µM]	IC50 [2] [µM]	Structure (SMILES)	further results
0.39	0.0048	COc1cccc(Nc2ccnc3[nH]c4ccc(S(=O)(=O)N5CCNCC5)cc4c23)c1	
1.64	0.0076	CC(=O)c1ccc2[nH]c3nccc(Nc4cccc(N)c4)c3c2c1	
0.689	0.0092	COc1cccc(Nc2ccnc3[nH]c4ccc(S(=O)(=O)N5CCN(CCO)CC5)cc4c23)c1	
1.15	0.013	CC(=O)c1ccc2[nH]c3nccc(Nc4cccc(Cl)c4)c3c2c1	
0.978	0.021	CC(=O)c1ccc2[nH]c3nccc(Nc4cccc([N+](=O)[O-])c4)c3c2c1	
0.978	> 1000	Cc1ccccc1Nc1ccnc2[nH]c3ccccc3c12	
0.298	> 1000	O=S(=O)(c1ccc2[nH]c3nccc(Nc4cccc(O)c4)c3c2c1)N1CCOCC1	
6.53	0.479	CCOc1cccc(Nc2ccnc3[nH]c4ccc(S(=O)(=O)N5CCN(CCO)CC5)cc4c23)c1	
0.013	> 1000	CC(=O)c1ccc2[nH]c3nccc(Nc4cccc(O)c4)c3c2c1	
